Drawing on US20230338568A1, “NOVEL ISOMERIC COMPOUNDS COMPRISING A RING-OPENED THIOSUCCINIMIDE GROUP, AN OLIGOPEPTIDE FRAGMENT AND A CHIRAL MOIETY” (priority 2020, published 2023), this text covers IC50 for 1 compound.

Assay [1] deals with HER2 negative cell MDA-MB-468. As to the kind of experiment: Cytotoxicity of α-ADCs in HER2 negative cell MDA-MB-468 (CellTiter-Glo). In kind it is cell-based. To be noted: HER2 negative MDA-MB-468, 72 h. On the procedure:
(§1) Cell viability is tested using CellTiter-Glo® Luminescent Kit (Promega, Cat.# G7573) read by a Biotek Cytation3 Imaging reader.
(§2) Study design was shown as in Table 21 and Table 22. […] Cell vitality formula: Viability = (RLU (X) - RLU (Puro))/(RLU (Control) - RLU (Puro)) ^∗ 100%. A logistic model (4-parameter) will be used for data processing, IC50 calculation and curve fitting by Prism 6 software.
(ATP-based viability assays read luminescence as a measure of living cells.)

Assay [2] deals with HER2 positive cell HCC1954. As to the kind of experiment: Cytotoxicity of α-ADCs in HER2 positive cell HCC1954 (CellTiter-Glo). In kind it is cell-based, Human. Conditions: HER2 positive HCC1954, 72 h. On the procedure: as §1, §2

The term IC50 denotes the point on the concentration scale where inhibition reaches its midpoint. The low end stands for inhibition by little substance, the high end for a need for much substance.

`COc1cc2cc(c1Cl)N(C)C(=O)C[C@H](OC(=O)[C@H](C)N(C)C(=O)CCS)[C@]1(C)O[C@H]1[C@H](C)[C@@H]1C[C@@](O)(NC(=O)O1)[C@H](OC)/C=C/C=C(\C)C2` [DM1]: the IC50 is 1.5 nM in assay [1] and 4.2 nM in assay [2].
